Experimental data from patent US20160145247A1, “Aminomethyl-Biaryl Derivatives Complement Factor D inhibitors and uses thereof” (NOVARTIS AG, priority 2013, published 2016).
pIC50: −log10 of the molar value.

Target: T1, factor D (Homo sapiens, UniProt P00746)
T1 construct: made in house; host or cells: E. coli
Test: factor D inhibition assay of Biological Example 2
Type: biochemical

T1 sequence (P00746 26-253): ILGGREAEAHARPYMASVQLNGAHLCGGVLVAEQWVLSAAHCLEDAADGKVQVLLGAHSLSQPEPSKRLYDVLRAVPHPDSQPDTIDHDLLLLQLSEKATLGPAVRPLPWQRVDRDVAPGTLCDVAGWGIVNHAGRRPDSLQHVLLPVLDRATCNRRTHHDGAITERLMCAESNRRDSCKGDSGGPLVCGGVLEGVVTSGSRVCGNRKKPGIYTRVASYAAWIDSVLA

SMILES	pIC50
Cc1cc(COc2ccccc2CC(=O)O)cc(-c2cccc([C@H](N)CO)c2)c1 [Example 112-B, (S)-2-(2-((3′-(1-Amino-2-hydroxyethyl)-5-methyl-[1,1′-biphenyl]-3-yl)methoxy)phenyl)acetic acid]	8.15
NCc1nccc(-c2cccc(COc3ccccc3CC(=O)O)c2)n1 [Example 142-J]	7.17
NCc1cccc(-c2csc(C(=O)Nc3ccccc3CC(=O)O)n2)c1 [Example 26-B, 2-(2-(4-(3-(Aminomethyl)phenyl)thiazole-2-carboxamido)phenyl)acetic acid]	7.03
COCCOc1cc(C(=O)Nc2ccccc2CC(=O)O)cc(-c2cc(F)cc(CN)c2)c1 [Example 73-C, 2-(2-(3′-(Aminomethyl)-5′-fluoro-5-(2-methoxyethoxy)-[1,1′-biphenyl]-3-ylcarboxamido)phenyl)acetic acid]	7.66
C[C@@H](N)c1cccc(-c2cc(COCC(F)(F)F)cc(COc3ccccc3CC(=O)O)c2)c1 [Example 120-N]	7.82
N[C@H](CO)c1cccc(-c2ccc3c(c2)C(Oc2ccccc2CC(=O)O)CC3)c1 (mixture of isomers) [Example 172, (±)-2-(2-((6-(3-((S)-1-Amino-2-hydroxyethyl)phenyl)-2,3-dihydro-1H-inden-1-yl)oxy)phenyl)acetic acid]	5.23
Cc1ccc(-c2cccc([C@H](C)N)c2F)cc1COc1ccccc1CC(=O)O [Example 274, (S)-2-(2-((3′-(1-aminoethyl)-2′-fluoro-4-methyl-[1,1′-biphenyl]-3-yl)methoxy)phenyl)acetic acid]	6.47
CC(NCc1cc(COc2ccccc2CC(=O)O)cc(-c2cccc(CN)c2)c1)C(F)(F)F (stereo not drawn) [Example 208-F]	8.05
NC(CF)c1cccc(-c2cc(CCc3ccncc3)cc(COc3ccccc3CC(=O)O)c2)c1F (stereo not drawn) [Example 216-Q]	7.92
CCC[C@@H](N)c1cccc(-c2cc(COc3ccccc3CC(=O)O)cc(C3CC3)c2)c1F [Example 202-B, (R)-2-(2-((3′-(1-Aminobutyl)-5-cyclopropyl-2′-fluoro-[1,1′-biphenyl]-3-yl)methoxy)phenyl)acetic acid]	7.48
N[C@H](CO)c1cccc(-c2cc(COc3ccccc3CC(=O)O)cc(C(O)C(F)(F)F)c2)c1 (single isomer, unassigned) [116-G b) (tr = 2.1 min)]	7.96
CC(C)OCc1cc(COc2ccccc2CC(=O)O)cc(-c2cccc([C@@H](C)N)c2F)c1 [Example 120-O]	7.62
N[C@H](CCF)c1cccc(-c2cc(Cl)cc(COc3ccccc3CC(=O)O)c2)c1 [Example 279-B, (R)-2-(2-((3′-(1-amino-3-fluoropropyl)-5-chloro-[1,1′-biphenyl]-3-yl)methoxy)phenyl)acetic acid]	6.54
C[C@@H](N)c1cccc(-c2cc(COc3ccccc3CC(=O)O)cc(N(C)CC(F)F)c2)c1F [Example 216-N]	7.62
C[C@@H](N)c1cccc(-c2cc(COc3ccccc3CC(=O)O)cc(C(C)(C)O)c2)c1F [Example 120-G]	7.89
COC(=O)Cc1ccccc1NC(=O)c1cccc(-c2cc(CN)ccc2F)c1 [Example 4-A, Methyl 2-(2-(5′-(aminomethyl)-2′-fluoro-[1,1′-biphenyl]-3-ylcarboxamido)phenyl)acetate]	4.48
NCc1ccc(F)c(-c2cccc(COc3ccccc3CC(=O)O)c2)c1 [Example 138-E]	5.70
NCc1cc(F)cc(-c2cccc(C(=O)Nc3cc(F)ccc3CC(=O)O)c2)c1 [Example 21-I]	6.33
CC(C)n1cc(-c2cc(COc3ccccc3CC(=O)O)cc(-c3cccc(CN)c3)c2)cn1 [Example 209-C]	8.30
NCc1cc(F)cc(-c2cccc(C(=O)Nc3ccccc3CC(=O)O)n2)c1 [Example 20-B, 2-(2-(6-(3-(Aminomethyl)-5-fluorophenyl)picolinamido)phenyl)acetic acid]	7.80
N[C@H](CF)c1cccc(-c2cc(COc3ccccc3CC(=O)O)cc(NCC3CC3)c2)c1F [Example 216-A]	8.15
Cc1c(CN)cccc1-c1cccc(COc2ccccc2CC(=O)O)c1 [Example 143-C, 2-(2-((3′-(Aminomethyl)-2′-methyl-[1,1′-biphenyl]-3-yl)methoxy)phenyl)acetic acid]	6.88
COc1cccc(CC(=O)O)c1NC(=O)c1cccc(-c2cc(F)cc(CN)c2)c1 [Example 21-K]	6.90
C[C@@H](N)c1cccc(-c2cc(COc3ccccc3CC(=O)O)cc(OCc3ccccn3)c2)c1F [Example 213, (R)-2-(2-((3′-(1-Aminoethyl)-2′-fluoro-5-(pyridin-2-ylmethoxy)-[1,1′-biphenyl]-3-yl)methoxy)phenyl)acetic acid]	8.30
CCNc1cc(COc2ccccc2CC(=O)O)cc(-c2cccc([C@@H](C)N)c2F)c1 [Example 151, (R)-2-(2-((3′-(1-aminoethyl)-5-(ethylamino)-2′-fluoro-[1,1′-biphenyl]-3-yl)methoxy)phenyl)acetic acid]	8.22
CC(C)[C@@H](N)c1cccc(-c2cccc(COc3ccccc3CC(=O)O)c2)c1 [Example 190-F]	5.50
N[C@H](CO)c1cccc(-c2cc(COc3ccccc3CC(=O)O)cc(C(=O)N[C@H]3CCOc4ccccc43)c2)c1 [Example 287-G, 2-(2-((3′-((S)-1-amino-2-hydroxyethyl)-5-((S)-chroman-4-ylcarbamoyl)-[1,1′-biphenyl]-3-yl)methoxy)phenyl)acetic acid]	7.43
NCc1cccc(-c2cc(NCC(F)(F)F)cc(C(=O)Nc3ccccc3CC(=O)O)n2)c1 [Example 54, 2-(2-(6-(3-(Aminomethyl)phenyl)-4-((2,2,2-trifluoroethyl)amino)picolinamido)phenyl)acetic acid]	8.52
CCOC(=O)Cc1ccccc1OCc1cccc(-c2cccc([C@H](N)CO)c2)c1 [Example 268-C, (S)-Ethyl 2-(2-((3′-(1-amino-2-hydroxyethyl)-[1,1′-biphenyl]-3-yl)methoxy)phenyl)acetate]	4.26

More lines, in order of rising pIC50, values ahead:

pIC50	SMILES
5.46	CNCc1cccc(-c2cccc(COc3ccccc3CC(=O)O)c2)c1 [Example 288, 2-(2-((3′-((methylamino)methyl)-[1,1′-biphenyl]-3-yl)methoxy)phenyl)acetic acid]
5.90	NC(CO)c1cccc(-c2cccc(C(=O)Nc3ccccc3CC(=O)O)c2)c1 (racemic) [Example 86, (±)-2-(2-(3′-(1-Amino-2-hydroxyethyl)-[1,1′-biphenyl]-3-ylcarboxamido)phenyl)acetic acid]
6.08	Cc1ccc(NC(=O)c2cccc(-c3cc(F)cc(CN)c3)c2)c(CC(=O)O)c1 [Example 22-C, 2-(2-(3′-(aminomethyl)-5′-fluoro-[1,1′-biphenyl]-3-ylcarboxamido)-5-methylphenyl)acetic acid]
6.18	CC(C(=O)O)c1ccccc1NC(=O)c1cccc(-c2cc(F)cc(CN)c2)c1 (racemic) [Example 19-B, (±)-2-(2-(3′-(Aminomethyl)-5′-fluoro-[1,1′-biphenyl]-3-ylcarboxamido)phenyl)propanoic acid]
7.31	NCc1cc(F)cc(-c2nc(C(=O)Nc3ccccc3CC(=O)O)c(N3CCOCC3)s2)c1 [Example 32, 2-(2-(2-(3-(aminomethyl)-5-fluorophenyl)-5-morpholinothiazole-4-carboxamido)phenyl)acetic acid]
7.40	C[C@@H](N)c1cccc(-c2cc(COc3ccccc3CC(=O)O)cc(N3CCCCC3)c2)c1F [Example 241-C, (R)-2-(2-((3′-(1-Aminoethyl)-2′-fluoro-5-(piperidin-1-yl)-[1,1′-biphenyl]-3-yl)methoxy)phenyl)acetic acid]
7.47	C[C@@H](N)c1cccc(-c2cc(COc3ccccc3CC(=O)O)cc(OCC3CCCN3)c2)c1F (stereo partly drawn) [Example 266, 2-(2-((3′-((R)-1-aminoethyl)-2′-fluoro-5-(pyrrolidin-2-ylmethoxy)-[1,1′-biphenyl]-3-yl)methoxy)phenyl)acetic acid]
7.62	C[C@@H](N)c1cccc(-c2cc(COc3ccccc3CC(=O)O)cc(OCC3(C)CC3)c2)c1 [Example 261, (R)-2-(2-((3′-(1-aminoethyl)-5-((1-methylcyclopropyl)methoxy)-[1,1′-biphenyl]-3-yl)methoxy)phenyl)acetic acid]
7.66	COc1ccc(CC(=O)O)c(NC(=O)c2cccc(-c3cc(F)cc(CN)c3)n2)c1 [Example 21-Q]
7.89	NCc1cccc(-c2cc(C(=O)Nc3ccccc3CC(=O)O)nc(-c3cccc(CN)c3)c2)c1 [Example 42, 2-(2-(4,6-bis(3-(Aminomethyl)phenyl)picolinamido)phenyl)acetic acid]
7.89	C[C@@H](N)c1cccc(-c2cc(COc3ccccc3CC(=O)O)c3c(c2)OCO3)c1F [Example 253-E, (R)-2-(2-((6-(3-(1-Aminoethyl)-2-fluorophenyl)benzo[d][1,3]dioxol-4-yl)methoxy)phenyl)acetic acid]
7.89	C[C@@H](N)c1cccc(-c2cc(COc3ccccc3CC(=O)O)cc(NCC(F)F)c2)c1F [Example 216-M]
7.96	C[C@@H](N)c1cccc(-c2cc(COc3ccccc3CC(=O)O)cc(OCC(F)(F)F)c2)c1F [Example 231-B, (R)-2-(2-((3′-(1-aminoethyl)-2′-fluoro-5-(2,2,2-trifluoroethoxy)-[1,1′-biphenyl]-3-yl)methoxy)phenyl)acetic acid]
8.05	C[C@@H](N)c1cccc(-c2cc(COc3ccccc3CC(=O)O)cc(OCC3CC3)c2)c1F [Example 148, (R)-2-(2-((3′-(1-Aminoethyl)-5-(cyclopropylmethoxy)-2′-fluoro-[1,1′-biphenyl]-3-yl)methoxy)phenyl)acetic acid]
8.10	NCc1cccc(-c2ccnc(COc3ccccc3CC(=O)O)c2)c1F [Example 182, 2-(2-((4-(3-(Aminomethyl)-2-fluorophenyl)pyridin-2-yl)methoxy)phenyl)acetic acid]
8.15	C[C@@H](N)c1cccc(-c2cc(COc3ccccc3CC(=O)O)cc(OCC3CCCCO3)c2)c1 (stereo partly drawn) [Example 265, 2-(2-((3′-((R)-1-aminoethyl)-5-((tetrahydro-2H-pyran-2-yl)methoxy)-[1,1′-biphenyl]-3-yl)methoxy)phenyl)acetic acid]
